Test results reported in patent US20130045933A1, “ALOE-EMODIN DERIVATIVES AND USE THEREOF FOR THE TREATMENT OF CANCER” (RAMOT AT TEL-AVIV UNIVERSITY LTD., priority 2010, published 2013).
Like-named read-outs stand apart in the source and are kept apart here.

What was measured:
NAR cells = experiment: Cytotoxicity IC50 experiments, XTT kit, 24 h incubation; conditions: for IC50: DOX resistant, P-gp overexpressing; for viability at 100 µM: read-out: cell viability
Experimental: (§1) Aloe-emodin was purchased from Molekula.
(§2) The cells were incubated for 24 h.
Finally, AEGs 13-16 were evaluated against DOX resistant ovarian cancer NAR cells in which resistance is conferred by overexpression of P-gp efflux pumps^[36]

MCF-7 = experiment: as above; conditions: Homo sapiens, MCF7, 24 h, read-out: cell viability
Experimental: as §1, §2

[1] = tested on: MCA 105 (murine fibrosarcoma); experiment: Cytotoxicity assay of compounds 11 and 12 (XTT, % cytotoxicity)
Experimental: (§3) The respective cell type at 1×10^4 cells/well was incubated for 24 hours in 96-well plates and cell viability was determined using the 2,3-bis(2-methoxy-4-nitro-5-sulphophenyl)-2H-tetrazolium-5-carboxanilide (XTT) kit (Biological Industries, Israel). […] Optical density is directly proportional to the number of living cells in culture. Cytotoxicity (%) was calculated in the following way: [(absorbance of control cells−absorbance of drug-treated cells)/absorbance of control cells]×100. Results shown are averages of 3 repeats ±SE.

[2] = tested on: Molt-4 (human T cell leukemia); experiment: as above
Experimental: as §3

[3] = tested on: HCT 116 (human colon adenocarcinoma); experiment: as above
Experimental: as §3

B16 (murine melanoma) = experiment: as above
Experimental: as §3

MOLT-4 = experiment: Cytotoxicity IC50 experiments, XTT kit, 24 h incubation; conditions: for IC50: read-out: IC-50 values after 24 h incubation, MOLT-4, 24 h incubation, XTT
OVCAR-3 = experiment: as above; format: cell-based; conditions: for IC50: 24 h incubation, XTT, read-out: IC-50 values after 24 h incubation, OVCAR-3; for viability at 20 µM: OVCAR-3, 20 μM, 24 h, read-out: cell viability
Experimental: as §1, §2

DOX resistant NAR cells = experiment: Fluorescent confocal microscopy study of cell permeability; format: cell-based; conditions: 5 μM, two hour incubation
Experimental: Cells (1×10^5/well) were plated into 24-well microtiter plates and incubated over coverslips for 24 hours. The cells were then added with one of the AEGs or DOX or AE at a total sample concentration of 5 μM. After 2 hours of incubation, the cells were washed three times, using PBS×1 (0.5 ml per well), and incubated with paraformaldehyde (3.7% in PBS 0.5 ml per well). After 15 min at ambient temperature, the cells were washed twice using PBS×1 0.5 ml per well. Cells were shaken at 50 rpm for 5 min after each wash. The plasma membrane of the fixated cells was stained by incubation of the samples with 300 μl of DiIC18(5)-DS ([…]) at 4° C. After 20 min, the cells were washed twice using PBS×1 0.5 ml per well. Cells were shaken at 50 rpm for 5 min after each wash. Finally, the samples were placed on a microscope slide and fixed using 10 μl of mounting. The slides were observed using an Andor Revolution Imaging System equipped with a Yokogawa CSU-X1 Spinning Disk Unit and an iXon 897 back-illuminated EMCCD camera, and mounted on a custom made Olympus IX-Upright microscope at Ex/Em=488/525 nm for DOX and AE glycoside I and Ex/Em=640/685 nm for DiIC18 (5)-DS.
A possible explanation for the potency of the synthetic AEGs against. DOX resistant cells was provided using fluorescent confocal microscopy (FIG. 11). […]

[4] = tested on: supercoiled plasmid PBR322; experiment: Supercoiled plasmid DNA unwinding gel experiment (DNA intercalation); format: binding
Experimental: Eppendorf tubes containing 3 μL supercoiled plasmid PBR322 (0.167 μg/ml), 14 μL tris-HCl-di-natrium-EDTA (TE X1) and 5 μL, AE, or one of the AEGs 1-4 or doxorubicin, at different concentrations were incubated for 15 min at 37° C. The samples were then added with 2 μl of loading buffer, and loaded on a 1% agarose gel in tris-HCl-boric-acid-di-natrium-EDTA (TBE X1). Samples were on the gel run for 15 min at 50 V and an additional 225 min at 70V. The gels were then immersed in a 0.5 mg/ml solution of ethidium bromide shaken for 20 min., washed with DDW for […]. DNA was visualized by UV illumination.
The DNA intercalation property of AEGs 13-16 was studied by applying the robust supercoiled plasmid DNA unwinding gel experiments protocol.^[23,37,38] Briefly, samples containing one of the AEGs 13-16, DOX or AE were pre-incubated with PBR322DNA plasmid, loaded on a 1% agarose gel, run for 4 hours at 70 volts and stained with ethidium bromide. […] At 200 μM.

MCF-7 cells = experiment: Light microscopy study of treated cells; format: cell-based; conditions: MCF-7, 20 μM, 24 hours, x400
Experimental: FIG. 9: Light microscopy (x400) pictures of MCF-7 cells: Cell cultures were incubated for 24 hours. (a) Untreated control cells (b) AE 20 μM (c), Dox 20 μM, (d) AEG 13 20 μM.
Cells micrographs were obtained using a light microscope (Olympus IX50-S8F2 inverted phase microscope) at x400 magnification.

[5] = cited from earlier work
[6] = 24 h, read-out: IC-50 values after 24 h incubation, NAR, 24 h incubation, XTT
[7] = read-out: IC-50 values after 24 h incubation, NAR, 24 h incubation, XTT
[8] = MCA 105, 24 hours of incubation, E-1 at the highest concentration
[9] = Molt-4, 24 hours of incubation, E-1 at the highest concentration
[10] = HCT116, 24 hours of incubation, E-1 at the highest concentration
[11] = B16, 24 hours of incubation, E-1 at the highest concentration

COc1cccc2c1C(=O)c1c(O)c3c(c(O)c1C2=O)C[C@@](O)(C(=O)CO)C[C@@H]3O[C@H]1C[C@H](N)[C@H](O)[C@H](C)O1 [DOX, doxorubicin, reference compound]
IC50 (NAR cells; [6]): > 100 µM | cell viability (NAR cells; NAR, 100 μM, 24 h): not affected at all | viability at 20 µM (MCF-7): 83% | cytotoxicity, general outcome (FIG. 4D) [1]: much more effective than the other compounds | cytotoxicity, general outcome (FIG. 4A) [2]: much more effective than the other compounds | toxicities (cytotoxicity) ([2]; human): about 20% | cytotoxicity, general outcome (FIG. 4C) [3]: much more effective than the other compounds | cytotoxicity, general outcome (FIG. 4B) (B16 (murine melanoma)): much more effective than the other compounds | IC50 (MOLT-4): 0.2 ± 0.07 µM | IC50 (OVCAR-3; Homo sapiens, OVCAR-3, 24 h): > 20 µM | viability at 20 µM (OVCAR-3; Homo sapiens): 61% | cellular accumulation (cell permeability) (DOX resistant NAR cells): accumulated mainly in the plasma membrane | DNA shift effect ([4]; 20 μM): still significant | DNA shift effect ([4]; 200 μM): intense effect | cell numbers and cell morphology by light microscopy (MCF-7 cells): became more spherical in shape and smaller in size

O=C1c2cccc(O)c2C(=O)c2c(O)cc(CO)cc21 [AE, Aloe-emodin]
IC50 (NAR cells; [6]): > 100 µM | viability at 100 µM (NAR cells; 24 h): 78% | viability at 20 µM (MCF-7): 77% | toxicities (cytotoxicity) ([2]; human): about 20% | cell viability (MOLT-4; MOLT-4, 20 μM, 24 h): 100% | IC50 (MOLT-4): > 20 µM | IC50 (OVCAR-3; Homo sapiens, OVCAR-3, 24 h): > 20 µM | solubility in water and in physiological solutions [5]: hardly soluble

CC1O[C@@H](OCc2cc(O)c3c(c2)C(=O)c2cccc(O)c2C3=O)CC(N)[C@H]1O (some centres unmarked) [AEG 13]
improvement in cytotoxic potency compared to DOX and AE (NAR cells): at least two orders of magnitude | IC50 (NAR cells; [7]): 8.6 ± 0.6 µM | IC50 (MOLT-4): 5.8 ± 1.3 µM | IC50 (OVCAR-3): 5.2 ± 0.1 µM | cellular accumulation (cell permeability) (DOX resistant NAR cells): intracellular accumulation | DNA shift effect ([4]; 200 μM): most significant effect | cell numbers and cell morphology by light microscopy (MCF-7 cells): a very small number of highly damaged cells was observed

NC1CC(OCc2cc(O)c3c(c2)C(=O)c2cccc(O)c2C3=O)OCC1O [E-1, Aloe-Emodin connected through C-7 to alpha 2-deoxy-3-deoxy-3-amino-L-xylopyranose]
cytotoxicity, general outcome (FIG. 4D) [1, 8]: much more effective than Alo | cytotoxicity ([2]; Molt-4, 100 μM, 4 hours of incubation): about 90% | cytotoxicity, general outcome (FIG. 4A) [2, 9]: much more effective than Alo | cytotoxicity, general outcome (FIG. 4C) [3, 10]: much more effective than Alo | cytotoxicity, general outcome (FIG. 4B) (B16 (murine melanoma); [11]): much more effective than Alo

CC1O[C@H](OCc2cc(O)c3c(c2)C(=O)c2cccc(O)c2C3=O)CC(N)[C@H]1O (some centres unmarked) [AEG 16]
IC50 (NAR cells; [7]): 28.3 ± 2.3 µM | viability at 20 µM (MCF-7): 83% | IC50 (MOLT-4): 12.8 ± 0.7 µM | IC50 (OVCAR-3): > 20 µM | viability at 20 µM (OVCAR-3; Homo sapiens): 60%

CC1O[C@H](OCc2cc(O)c3c(c2)C(=O)c2cccc(O)c2C3=O)CC(N)[C@H]1O (some centres unmarked) [AEG 14]
viability at 100 µM (NAR cells; 24 h): 65% | IC50 (NAR cells; [7]): > 100 µM | IC50 (MOLT-4): 7.6 ± 1.6 µM | IC50 (OVCAR-3): 6.4 ± 0.2 µM | DNA shift effect ([4]; 200 μM): weak effect

NC1CC(OCc2cc(O)c3c(c2)C(=O)c2cccc(O)c2C3=O)OCC1O [E-2, Aloe-Emodin connected through C-7 to beta 2-deoxy-3-deoxy-3-amino-L-xylopyranose]
cytotoxicity, general outcome (FIG. 4D) [1, 8]: much weaker effect | cytotoxicity, general outcome (FIG. 4A) [2, 9]: much weaker effect | toxicities (cytotoxicity) ([2]; Molt-4, up to 8 hours of incubation): about 20% | cytotoxicity, general outcome (FIG. 4C) [3, 10]: much weaker effect | cytotoxicity, general outcome (FIG. 4B) (B16 (murine melanoma); [11]): much weaker effect

CC1O[C@@H](OCc2cc(O)c3c(c2)C(=O)c2cccc(O)c2C3=O)CC(N)[C@H]1O (some centres unmarked) [AEG 15]
IC50 (NAR cells; [7]): 18 ± 1.3 µM | IC50 (MOLT-4): 5.4 ± 0.4 µM | IC50 (OVCAR-3): 15.7 ± 0.8 µM
